Results from US20080214537A1, “BRIDGED PHENANTHRIDINES” (CARA THERAPEUTICS, INC., priority 2007, published 2008).

Tests used:
[1] = target: human CB2 receptor (hCB2) (Homo sapiens, UniProt P34972); test: cAMP assay (LANCE TR-FRET) in CHO-K1 cells expressing hCB2; format: cell-based; settings: for Emax: CHO-K1, intrinsic activity: percent maximal activation compared to full activation by CP55,940 (1 μM = 100%), read-out: hCB2 % Max Range; for EC50: CHO-K1 cells stably expressing hCB2, intracellular cAMP, NKH-477 prestimulated, average of at least three replicates
[2] = target: human CB1 receptor (hCB1) (Homo sapiens, UniProt P21554); test: cAMP assay (LANCE TR-FRET) in CHO-K1 cells expressing hCB1; format: cell-based; settings: activity on hCB1 represents inverse agonism; for Emax: CHO-K1, percent of range defined by CP55,940 (1 μM = 100%), read-out: hCB1 % Max Range; for EC50: CHO-K1 cells stably expressing hCB1, intracellular cAMP, NKH-477 prestimulated
[3] = test system: Male ICR mice; test: Acetic acid-induced writhing assay in mice; format: in vivo; settings: 10 mg/kg subcutaneous, 30 min before 0.6% acetic acid i.p.; writhes counted over 15 min
Excerpt: 12: 525-562; Ramabadran and Bansinath (1986) Pharm. Res. 3: 263-270]. Intraperitoneal administration of dilute acetic acid solution causes a writhing behavior in mice. A writhe is defined as a contraction of the abdominal muscles accompanied by an extension of the forelimbs and elongation of the body. The number of writhes observed in the presence and absence of test compounds is counted to determine the analgesic activity of the compounds.
(§1) Male ICR mice, 20-40 grams in weight, served as experimental subjects. To determine the activity and potency of test compounds, mice were weighed and then injected with different doses of the compound solution or vehicle subcutaneously in the back of the neck and then returned to their home cages. Thirty minutes later, body temperatures were obtained using a digital rectal probe and then mice were immediately injected with 10 ml/kg of a 0.6% (v/v) acetic acid solution into the right lower quadrant of the abdomen. Mice were then placed in individual observation chambers (usually a 4000 ml beaker) with a fine layer of bedding at the bottom and the recording of the number of writhes begun immediately. The number of writhes was counted over a 15-min period starting from the time of the acetic acid injection. Raw data were analyzed using a one-way ANOVA followed by Dunnett's post-tests. For dose-response analysis, raw data were converted to % maximum possible effect (% MPE) using the formula:
% MPE=((Wc−Wv)/(0−Wv))*100
where Wc is the number of writhes in compound-treated mice and Wv is the mean number of writhes in vehicle-treated mice. The dose which elicited 50% attenuation of hypersensitivity (ED50) was determined using linear regression analysis. (Tallarida & Murray, 1987).

[4] = Body temperature (rectal probe) in writhing assay mice; format: in vivo; settings: 10 mg/kg subcutaneous; thirty minutes after dosing
Procedure: as §1, with “formula: […]” for “formula:”

human CB1 receptor (hCB1), sequence (P21554 whole entry): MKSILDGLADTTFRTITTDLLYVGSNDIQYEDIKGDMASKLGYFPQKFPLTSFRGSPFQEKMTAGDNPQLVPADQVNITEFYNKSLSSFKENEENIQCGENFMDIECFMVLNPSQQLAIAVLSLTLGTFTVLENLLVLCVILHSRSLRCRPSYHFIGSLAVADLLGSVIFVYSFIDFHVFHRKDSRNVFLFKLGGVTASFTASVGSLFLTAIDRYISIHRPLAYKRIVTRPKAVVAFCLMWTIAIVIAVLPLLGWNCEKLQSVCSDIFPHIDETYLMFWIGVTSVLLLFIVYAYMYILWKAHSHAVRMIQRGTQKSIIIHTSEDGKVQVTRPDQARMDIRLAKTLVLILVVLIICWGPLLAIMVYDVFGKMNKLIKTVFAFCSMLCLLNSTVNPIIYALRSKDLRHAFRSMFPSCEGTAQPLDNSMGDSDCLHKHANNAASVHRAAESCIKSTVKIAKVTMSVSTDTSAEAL
human CB2 receptor (hCB2), sequence (P34972 whole entry): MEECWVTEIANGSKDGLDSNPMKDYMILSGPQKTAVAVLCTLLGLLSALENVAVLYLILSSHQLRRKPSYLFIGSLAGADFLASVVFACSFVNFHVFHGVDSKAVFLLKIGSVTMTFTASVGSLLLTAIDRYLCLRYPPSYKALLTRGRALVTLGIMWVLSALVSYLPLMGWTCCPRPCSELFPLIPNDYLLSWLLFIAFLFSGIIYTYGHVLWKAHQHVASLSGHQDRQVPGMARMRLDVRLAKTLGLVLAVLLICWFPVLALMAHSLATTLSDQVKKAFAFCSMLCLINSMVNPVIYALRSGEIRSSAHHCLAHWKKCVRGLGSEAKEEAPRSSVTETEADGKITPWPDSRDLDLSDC

| SMILES | Emax [1] | EC50 [1] | Emax [2] | EC50 [2] | % MPE [3] | Δ BODY TEMP. (° C.): observed reduction in body temperature [4] |
| --- | --- | --- | --- | --- | --- | --- |
| O=S(=O)(c1ccc2c(c1)C1C3CCC(C3)C1C(c1ccccc1)N2)N1CCOCC1 (stereo not drawn) [(34), Bridged 4-(6-phenyl-5,6,6a,7,8,9,10,10a-octahydrophenanthridin-2-ylsulfonyl)morpholine] | 102% | 0.56 nM | < 40% | > 10000 nM | 23% | 0.1 °C |
| CC(=O)NS(=O)(=O)c1ccc2c(c1)C1C3CCC(C3)C1C(c1ccccc1)N2 (stereo not drawn) [(46), Bridged N-(6-phenyl-5,6,6a,7,8,9,10,10a-octahydrophenanthridin-2-ylsulfonyl)acetamide] | 96.9% | 36.7 nM | < 40% | > 10000 nM | 41% | 0.2 °C |
| O=S(=O)(c1ccc2c(c1)C1C3CCC(C3)C1C(c1ccccc1)N2)N1CCCCC1 (stereo not drawn) [(3b), Bridged 6-phenyl-2-(piperidin-1-ylsulfonyl)-5,6,6a,7,8,9,10,10a-octahydrophenanthridine] | 101% | 0.38 nM | < 40% | > 10000 nM | 12% | 0.4 °C |
